Assay results: PubChem BioAssay (NCI)
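Interpolation was linear, between the two tested concentrations surrounding the appropriate level; five concentrations were tested over 48 hours in 96-well plates. GI50 marks 50% less growth. TGI denotes the concentration required for complete inhibition of growth.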

Columns and labels:
Experiment in all cases: NCI anticancer screen, dose series, 48 h
COLO 205 colon = system: COLO 205 colon
OVCAR-4 ovarian = system: OVCAR-4 ovarian
NCI-H522 lung = system: NCI-H522 lung
UACC-257 melanoma = system: UACC-257 melanoma
ACHN renal = system: ACHN renal
SF-295 CNS = system: SF-295 CNS
SNB-75 CNS = system: SNB-75 CNS
UACC-62 melanoma = system: UACC-62 melanoma
A498 renal = system: A498 renal
HL-60(TB) leukemia = system: HL-60(TB) leukemia
HOP-62 NSCLC = system: HOP-62 NSCLC
SN12C renal = system: SN12C renal
K-562 leukemia = system: K-562 leukemia
HS 578T breast = system: HS 578T breast
RPMI-8226 leukemia = system: RPMI-8226 leukemia
IGROV1 ovarian = system: IGROV1 ovarian
SF-539 CNS = system: SF-539 CNS
MDA-MB-231 breast = system: MDA-MB-231 breast
SNB-19 CNS = system: SNB-19 CNS
MCF7 breast = system: MCF7 breast
EKVX NSCLC = system: EKVX NSCLC
786-0 renal = system: 786-0 renal
SK-OV-3 ovarian = system: SK-OV-3 ovarian
SR leukemia = system: SR leukemia
HCC-2998 colon = system: HCC-2998 colon
HCT-15 colon = system: HCT-15 colon

With `COc1cc(-c2nc3ccccc3s2)ccc1OCCCCCOc1cc2c(cc1OC)C(=O)N1CCC[C@H]1C=N2` the GI50 (COLO 205 colon) was 99.2 nM, the TGI (COLO 205 colon) was 332 nM and the GI50 (OVCAR-4 ovarian) was 264 nM. It also gave a GI50 (NCI-H522 lung) of 97.4 nM, a TGI (NCI-H522 lung) of 1140 nM and a GI50 (UACC-257 melanoma) of 253 nM. The TGI (UACC-257 melanoma) was 1170 nM, the GI50 (ACHN renal) was 53.5 nM and the TGI (ACHN renal) was 398 nM. The GI50 (SF-295 CNS) was 140 nM, the TGI (SF-295 CNS) was greater than 63300 nM and the GI50 (SNB-75 CNS) was 191 nM. It also gave a TGI (SNB-75 CNS) of 779 nM, a GI50 (UACC-62 melanoma) of 114 nM and a TGI (UACC-62 melanoma) of 265 nM. It also gave a GI50 (A498 renal) of 199 nM, a TGI (A498 renal) of 358 nM and a GI50 (HL-60(TB) leukemia) of 75.7 nM. It also gave a TGI (HL-60(TB) leukemia) of 699 nM, a GI50 (HOP-62 NSCLC) of 85.1 nM and a TGI (HOP-62 NSCLC) of 950 nM. It also gave a GI50 (SN12C renal) of 256 nM, a TGI (SN12C renal) of 4540 nM and a GI50 (K-562 leukemia) of 32.1 nM. It also gave a TGI (K-562 leukemia) of 2230 nM, a GI50 (HS 578T breast) of 219 nM and a TGI (HS 578T breast) of 600 nM. For the same compound, the GI50 (RPMI-8226 leukemia) was 97.2 nM, the TGI (RPMI-8226 leukemia) was 424 nM and the GI50 (IGROV1 ovarian) was 244 nM. The GI50 (SF-539 CNS) was 86.4 nM, the TGI (SF-539 CNS) was 286 nM and the GI50 (MDA-MB-231 breast) was 145 nM. The TGI (MDA-MB-231 breast) was 1970 nM, the GI50 (SNB-19 CNS) was 213 nM and the TGI (SNB-19 CNS) was 4610 nM. The GI50 (MCF7 breast) was 32.4 nM, the TGI (MCF7 breast) was 701 nM and the GI50 (EKVX NSCLC) was 364 nM. For the same compound, the TGI (EKVX NSCLC) was 953 nM, the GI50 (786-0 renal) was 84.3 nM and the TGI (786-0 renal) was 380 nM. For the same compound, the GI50 (SK-OV-3 ovarian) was 177 nM, the TGI (SK-OV-3 ovarian) was 674 nM and the GI50 (SR leukemia) was less than 13.2 nM. For the same compound, the GI50 (HCC-2998 colon) was 125 nM, the TGI (HCC-2998 colon) was 300 nM and the GI50 (HCT-15 colon) was 284 nM. The TGI (HCT-15 colon) was 6020 nM.
